This is an account of results in publication PMC10020958, “2-(4-Fluorophenyl)-1H-benzo[d]imidazole as a Promising Template for the Development of Metabolically Robust, α1β2γ2GABA-A Receptor-Positive Allosteric Modulators” (ACS Chemical Neuroscience, 2023).

Data set [1] addresses GABA-A receptor (benzodiazepine site, α1/γ2 interface). Nature of the data set: Radioligand binding assay for the GABA-A receptor ([3H]-flunitrazepam displacement, rat brain homogenate). The conditions noted are these: pKi = -log Ki, n.a. = no affinity.
The target in data set [2] is T1, α1β2γ2-GABA-A receptors stably expressed in HEK293 cells (Homo sapiens, UniProt P14867+P18507).
T1 construct: expressed in transfected cells
T1 sequence (P14867 28-456): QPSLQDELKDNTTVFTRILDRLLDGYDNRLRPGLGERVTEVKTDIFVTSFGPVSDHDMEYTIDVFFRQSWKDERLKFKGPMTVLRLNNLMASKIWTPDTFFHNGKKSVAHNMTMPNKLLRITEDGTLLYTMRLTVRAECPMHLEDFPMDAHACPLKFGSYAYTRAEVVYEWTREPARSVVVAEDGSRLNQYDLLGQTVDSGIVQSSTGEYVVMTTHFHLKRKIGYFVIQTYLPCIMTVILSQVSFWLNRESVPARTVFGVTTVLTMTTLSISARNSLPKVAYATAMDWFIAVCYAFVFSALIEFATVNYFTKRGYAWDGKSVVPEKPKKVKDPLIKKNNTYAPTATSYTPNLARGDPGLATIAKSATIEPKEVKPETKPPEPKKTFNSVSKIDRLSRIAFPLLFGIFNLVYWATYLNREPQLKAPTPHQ
T1 sequence (P47870 25-512 partner limits assumed): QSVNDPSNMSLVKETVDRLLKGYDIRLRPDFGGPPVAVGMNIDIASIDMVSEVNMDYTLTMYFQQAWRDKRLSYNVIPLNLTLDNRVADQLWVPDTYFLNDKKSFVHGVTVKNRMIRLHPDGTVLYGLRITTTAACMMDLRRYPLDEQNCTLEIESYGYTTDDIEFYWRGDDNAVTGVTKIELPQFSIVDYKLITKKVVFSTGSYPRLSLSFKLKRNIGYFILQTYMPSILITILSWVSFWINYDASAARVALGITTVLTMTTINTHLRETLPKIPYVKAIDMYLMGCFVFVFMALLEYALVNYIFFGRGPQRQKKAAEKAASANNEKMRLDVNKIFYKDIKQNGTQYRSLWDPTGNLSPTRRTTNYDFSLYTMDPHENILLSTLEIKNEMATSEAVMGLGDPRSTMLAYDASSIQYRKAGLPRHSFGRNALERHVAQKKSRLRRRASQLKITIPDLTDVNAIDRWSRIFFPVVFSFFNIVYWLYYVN
T1 sequence (P18507 40-475): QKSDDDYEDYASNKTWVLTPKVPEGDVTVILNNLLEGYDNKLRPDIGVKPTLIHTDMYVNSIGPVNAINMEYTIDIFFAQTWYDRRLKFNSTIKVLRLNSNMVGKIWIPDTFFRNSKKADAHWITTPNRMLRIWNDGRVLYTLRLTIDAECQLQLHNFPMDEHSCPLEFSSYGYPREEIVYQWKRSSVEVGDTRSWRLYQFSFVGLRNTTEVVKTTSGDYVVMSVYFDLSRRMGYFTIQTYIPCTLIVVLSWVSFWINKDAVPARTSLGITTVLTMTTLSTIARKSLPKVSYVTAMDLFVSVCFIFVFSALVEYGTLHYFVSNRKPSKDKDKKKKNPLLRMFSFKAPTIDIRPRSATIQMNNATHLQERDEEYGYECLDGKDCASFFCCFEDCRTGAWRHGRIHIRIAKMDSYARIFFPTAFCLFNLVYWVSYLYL
The data set can be described thus: Electrophysiological studies, automated patch clamp (QPatch16X), positive allosteric modulation of GABA-induced Cl- currents. The class given is cell-based. To be noted: compound 1 μM co-applied with 10 μM GABA; GABA alone = 100%; mean ± SEM. As to the method: Given that ligands binding within the α1/γ2 interface act as PAMs, we selected the most promising 1H-benzo[d]imidazoles (9, 15, 16, 23, and 29) for electrophysiological studies using automated patch clamp recordings (QPatch16X, Sophion). We expected that 1H-benzo[d]imidazoles would potentiate GABA-induced Cl^– currents rather than inducing ion passage alone.
Electrophysiology studies were performed using the QPatch16X automatic patch clamp platform (Sophion Biosciences) and HEK293 cells, stably expressing the α1β2γ2 subunits of the human GABA-A receptor. Prior to the assay recordings, the cells were transferred from the culture flask through a TrypLE Express solution (LifeTechnologies) and resuspended in serum-free media. The cells were placed in the lidless microtube, located onboard the automated electrophysiology instrument. The cells were then automatically relocated to a built-in centrifuge, spun down, and washed in Ringer’s extracellular solution. The cells were transferred to the pipetting wells of a single-use 16-channel planar patch chip plate (QPlate 16X), and gigaseals were formed upon implementation of a combined suction/voltage protocol. Subsequent suction induced whole-cell configuration. The chloride currents passed via the GABA-A receptor were recorded for 7 s after single addition of a tested molecule. Through whole-cell recording, the holding potential was set to −90 mV. The assay was performed at room temperature. The extracellular solution was composed of the following ingredients: consisted of 2 mM […], 145 mM NaCl, 10 mM HEPES, CaCl2, 1 mM MgCl2, 10 mM glucose (pH 7.4, 300 mOsm), and intracellular solution contained 140 mM CsF, 1 mM EGTA, 5 mM CsOH, 10 mM HEPES, and 20 mMNaCl (pH 7.2, 320 mOsm). The screening assays were established in the instrument software by sequential application of 10 μM GABA (reference agonist AG1), 1 μM examined molecule compounds, and compounds co-administered with 10 μM GABA (T2); second addition of 10 μM GABA (AG2); 10 μM bicuculline (reference antagonist) along with 10 μM GABA (ATG). The intermission among the addition of particular molecules was 60 s. In a typical procedure, 5 μL of ligand was added to the cells, followed by 3 s of washout with an extracellular solution (two times […]). For the allosteric modulator/antagonist mode, the cells were preincubated with the tested compound alone for 50 s, followed by the addition of the reference agonist. The data obtained were processed using QPatch Assay Software (v5.0, Sophion Biosciences) and are represented as the mean of at least three independent experiments performed on separate cells. The validation criteria for a single test were current amplitude evoked by adding GABA greater than 500 pA and a change between cells’ response to GABA applications (AG1 and AG2) not greater than 25%. The relative compound efficiency was analyzed as the baseline-corrected ratio of maximal current amplitudes induced by the addition of tested compounds and reference agonist (T1-ATG/AG1-ATG or T2-ATG/AG1-ATG). The obtained raw current recordings were normalized and represented as % of the current amplitude induced by a reference agonist (GABA = 100%) using the QPatch Assay Software (v5.0, Sophion Biosciences).[24]

The melting point is the temperature, or range, at which the solid turns liquid. Turning to `Cc1ccc2c(c1)nc(-c1ccc(F)cc1)n2CC(=O)N1CCCC1` [Compound 10, 2-(2-(4-Fluorophenyl)-5-methyl-1H-benzo[d]imidazole-1-yl)-1-(pyrrolidin-1-yl)ethan-1-one], the melting point lay within 208.7 to 210.2 °C. For the same compound, the “pKi GABA-A” value in data set [1] is reported as “no affinity”.
The matching figures for `Cc1ccc2nc(-c3ccc(F)cc3)n(CC(=O)N3CCSCC3)c2c1` [Compound 11, 2-(2-(4-Fluorophenyl)-6-methyl-1H-benzo[d]imidazole-1-yl)-1-thiomorpholinoethan-1-one]: 205.3 to 207.1 °C and 5.1.
As to `Cc1ccc2c(c1)nc(-c1ccc(F)cc1)n2CC(=O)N1CCSCC1` [Compound 12, 2-(2-(4-Fluorophenyl)-5-methyl-1H-benzo[d]imidazole-1-yl)-1-thiomorpholinoethan-1-one], the melting point lay within 199 to 200.9 °C. Besides, the “pKi GABA-A” value in data set [1] was “no affinity”.
The corresponding values for `Cc1ccc2nc(-c3ccc(F)cc3)n(CC(=O)Nc3ccccc3)c2c1` [Compound 13, 2-(2-(4-Fluorophenyl)-6-methyl-1H-benzo[d]imidazole-1-yl)-N-phenylacetamide] are 202.5 to 205 °C and 5.53.
The corresponding values for `Cc1ccc2c(c1)nc(-c1ccc(F)cc1)n2CC(=O)Nc1ccccc1` [Compound 14, 2-(2-(4-Fluorophenyl)-5-methyl-1H-benzo[d]imidazole-1-yl)-N-phenylacetamide] are 207.3 to 209.2 °C and “no affinity”.
Consider `CN(C)C(=O)Cn1c(-c2ccc(F)cc2)nc2ccccc21` [Compound 15, 2-(2-(4-Fluorophenyl)-1H-benzo[d]imidazole-1-yl)-N,N-dimethylacetamide], for which the melting point fell in the range of 182.3 to 183.1 °C. For the same compound, in data set [1], the “pKi GABA-A” value stood at 5.39. Moreover, the “% of 10 μM GABA response” value in data set [2] is reported as 105 ± 2,5%.
The corresponding values for `O=C(Cn1c(-c2ccc(F)cc2)nc2ccccc21)N1CCCC1` [Compound 16, 2-(2-(4-Fluorophenyl)-1H-benzo[d]imidazole-1-yl)-1-(pyrrolidin-1-yl)ethan-1-one] are 212.9 to 214 °C, 5.53 and 124 ± 5,2%.
On to `O=C(Cn1c(-c2ccc(F)cc2)nc2ccccc21)N1CCNCC1` [Compound 17, 2-(2-(4-Fluorophenyl)-1H-benzo[d]imidazole-1-yl)-1-(piperazin-1-yl)ethan-1-one], for which the melting point lay in the range of 232.8 to 234.1 °C. Besides, the “pKi GABA-A” value in data set [1] is reported as “loss of activity”.
On to `CN1CCN(C(=O)Cn2c(-c3ccc(F)cc3)nc3ccccc32)CC1` [Compound 18, 2-(2-(4-Fluorophenyl)-1H-benzo[d]imidazole-1-yl)-1-(4-methylpiperazin-1-yl)ethan-1-one], for which the melting point lay in the range of 172.3 to 173.1 °C.
Same read-out and setting: the value for `CC1CN(C(=O)Cn2c(-c3ccc(F)cc3)nc3ccccc32)CC(C)N1` (stereo not drawn) [Compound 19, 1-(3,5-Dimethylpiperazin-1-yl)-2-(2-(4-fluorophenyl)-1H-benzo[d]imidazole-1-yl)ethan-1-one] was 109.6 to 112.4 °C.
In the case of `O=C(Cn1c(-c2ccc(F)cc2)nc2ccccc21)N1CCOCC1` [Compound 20, 2-(2-(4-Fluorophenyl)-1H-benzo[d]imidazole-1-yl)-1-morpholinoethan-1-one], the “pKi GABA-A” value in data set [1] is “loss of activity”.
Compound `O=C(Cn1c(-c2ccc(F)cc2)nc2ccccc21)N1CCSCC1` [Compound 21, 2-(2-(4-Fluorophenyl)-1H-benzo[d]imidazole-1-yl)-1-thiomorpholinoethan-1-one] displayed a melting point of 205.3 to 205.8 °C.
On the same count and under the same terms, for `O=C(Cn1c(-c2ccc(F)cc2)nc2ccccc21)Nc1ccccc1` [Compound 22, 2-(2-(4-Fluorophenyl)-1H-benzo[d]imidazole-1-yl)-N-phenylacetamide] the value was 236.7 to 239 °C.
Compound `COc1ccccc1NC(=O)Cn1c(-c2ccc(F)cc2)nc2ccccc21` [Compound 24, 2-(2-(4-Fluorophenyl)-1H-benzo[d]imidazole-1-yl)-N-(2-methoxyphenyl)acetamide] showed a melting point of 206.9 to 207.2 °C. In addition, the “pKi GABA-A” value in data set [1] is recorded as “loss of affinity”.
The corresponding values for `COc1cccc(NC(=O)Cn2c(-c3ccc(F)cc3)nc3ccccc32)c1` [Compound 25, 2-(2-(4-Fluorophenyl)-1H-benzo[d]imidazole-1-yl)-N-(3-methoxyphenyl)acetamide] are 149.1 to 149.9 °C and 5.02.
The matching figures for `COc1ccc(NC(=O)Cn2c(-c3ccc(F)cc3)nc3ccccc32)cc1` [Compound 26, 2-(2-(4-Fluorophenyl)-1H-benzo[d]imidazole-1-yl)-N-(4-methoxyphenyl)acetamide]: 255.1 to 255.7 °C and “loss of affinity”.
`O=C(Cn1c(-c2ccc(F)cc2)nc2ccccc21)Nc1ccccc1F` [Compound 27, N-(2-Fluorophenyl)-2-(2-(4-fluorophenyl)-1H-benzo[d]imidazole-1-yl)acetamide] displayed a melting point of 212.1 to 212.8 °C.
Same read-out and setting: for `O=C(Cn1c(-c2ccc(F)cc2)nc2ccccc21)Nc1cccc(F)c1` [Compound 28, N-(3-Fluorophenyl)-2-(2-(4-fluorophenyl)-1H-benzo[d]imidazole-1-yl)acetamide] the value was 182.3 to 182.7 °C.
In turn, `O=C(Cn1c(-c2ccc(F)cc2)nc2ccccc21)Nc1ccc(F)cc1` [Compound 29, N-(4-Fluorophenyl)-2-(2-(4-fluorophenyl)-1H-benzo[d]imidazole-1-yl)acetamide] had a melting point of 248 to 248.2 °C. Moreover, the “pKi GABA-A” value in data set [1] was determined as 5.74. Moreover, the “% of 10 μM GABA response” value in data set [2] is listed as 112 ± 2,8%.
On to `Cc1ccc(-c2nc3ccc(C)cn3c2CC(=O)N(C)C)cc1` [zolpidem, reference compound], for which the “pKi GABA-A” value in data set [1] was determined as 7.39. Moreover, in data set [2], the “% of 10 μM GABA response” value is reported as 212 ± 8,5%.
